# Laboratory results: the supplement of paper PMC10307832
# How the values were obtained:
# Assay in all cases: relative viability (nuclei count vs DMSO), 5 days (fraction); higher = more cells survive
# KN-93 + Tozasertib = compound: CN(C/C=C/C1=CC=C(C=C1)Cl)CC2=CC=CC=C2N(CCO)S(=O)(=O)C3=CC=C(C=C3)OC [KN-93] + Cc1cc(Nc2cc(N3CCN(C)CC3)nc(Sc3ccc(NC(=O)C4CC4)cc3)n2)n[nH]1 [Tozasertib] (partner 0.1 µM)
# How it was run: (§1)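 Cells from lung cancer lines were seeded into 1536-well plates and, one day later, dosed by pin tool. Treatments were either a single drug or a fixed dose of an anchor drug with five library-drug doses (not always all listed) in √10 steps. After 5 days, nuclei were stained in a one-step fixation (final 0.05% Triton X-100, 1% formaldehyde, 1 ug/ml Hoechst) and counted on 4× images, and relative viability is the treated-to-vehicle nuclei ratio, as the median of duplicate plates.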
# KN-93 + Trametinib = compound: CN(C/C=C/C1=CC=C(C=C1)Cl)CC2=CC=CC=C2N(CCO)S(=O)(=O)C3=CC=C(C=C3)OC [KN-93] + CC(=O)Nc1cccc(-n2c(=O)n(C3CC3)c(=O)c3c(Nc4ccc(I)cc4F)n(C)c(=O)c(C)c32)c1 [Trametinib] (partner 0.02 µM)
# How it was run: as §1
# KN-93 + Luminespib = compound: CN(C/C=C/C1=CC=C(C=C1)Cl)CC2=CC=CC=C2N(CCO)S(=O)(=O)C3=CC=C(C=C3)OC [KN-93] + CCNC(=O)c1noc(-c2cc(C(C)C)c(O)cc2O)c1-c1ccc(CN2CCOCC2)cc1 [Luminespib] (partner 0.01 µM)
# How it was run: as §1
# KN-93 + Decitabine = compound: CN(C/C=C/C1=CC=C(C=C1)Cl)CC2=CC=CC=C2N(CCO)S(=O)(=O)C3=CC=C(C=C3)OC [KN-93] + Nc1ncn([C@H]2C[C@H](O)[C@@H](CO)O2)c(=O)n1 [Decitabine] (partner 2 µM)
# How it was run: as §1
# KN-93 + Phenformin = compound: CN(C/C=C/C1=CC=C(C=C1)Cl)CC2=CC=CC=C2N(CCO)S(=O)(=O)C3=CC=C(C=C3)OC [KN-93] + N=C(N)NC(=N)NCCc1ccccc1 [Phenformin] (partner 250 µM)
# How it was run: as §1
# KN-93 + AZD7762 = compound: CN(C/C=C/C1=CC=C(C=C1)Cl)CC2=CC=CC=C2N(CCO)S(=O)(=O)C3=CC=C(C=C3)OC [KN-93] + NC(=O)Nc1cc(-c2cccc(F)c2)sc1C(=O)N[C@H]1CCCNC1 [AZD7762] (partner 0.2 µM)
# How it was run: as §1
# KN-93 + OSI-027 = compound: CN(C/C=C/C1=CC=C(C=C1)Cl)CC2=CC=CC=C2N(CCO)S(=O)(=O)C3=CC=C(C=C3)OC [KN-93] + COc1cccc2cc(-c3nc([C@H]4CC[C@H](C(=O)O)CC4)n4ncnc(N)c34)[nH]c12 [OSI-027] (partner 0.5 µM)
# How it was run: as §1
# KN-93 + Vorinostat = compound: CN(C/C=C/C1=CC=C(C=C1)Cl)CC2=CC=CC=C2N(CCO)S(=O)(=O)C3=CC=C(C=C3)OC [KN-93] + O=C(CCCCCCC(=O)Nc1ccccc1)NO [Vorinostat] (partner 1 µM)
# How it was run: as §1
# KN-93 + Pemetrexed = compound: CN(C/C=C/C1=CC=C(C=C1)Cl)CC2=CC=CC=C2N(CCO)S(=O)(=O)C3=CC=C(C=C3)OC [KN-93] + Nc1nc2[nH]cc(CCc3ccc(C(=O)N[C@@H](CCC(=O)O)C(=O)O)cc3)c2c(=O)[nH]1 [Pemetrexed] (partner 0.2 µM)
# How it was run: as §1
# KN-93 + Foretinib = compound: CN(C/C=C/C1=CC=C(C=C1)Cl)CC2=CC=CC=C2N(CCO)S(=O)(=O)C3=CC=C(C=C3)OC [KN-93] + COc1cc2c(Oc3ccc(NC(=O)C4(C(=O)Nc5ccc(F)cc5)CC4)cc3F)ccnc2cc1OCCCN1CCOCC1 [Foretinib] (partner 0.25 µM)
# How it was run: as §1
# KN-93 + Dasatinib = compound: CN(C/C=C/C1=CC=C(C=C1)Cl)CC2=CC=CC=C2N(CCO)S(=O)(=O)C3=CC=C(C=C3)OC [KN-93] + Cc1nc(Nc2ncc(C(=O)Nc3c(C)cccc3Cl)s2)cc(N2CCN(CCO)CC2)n1 [Dasatinib] (partner 0.075 µM)
# How it was run: as §1
# KN-93 + Palbociclib = compound: CN(C/C=C/C1=CC=C(C=C1)Cl)CC2=CC=CC=C2N(CCO)S(=O)(=O)C3=CC=C(C=C3)OC [KN-93] + CC(=O)c1c(C)c2cnc(Nc3ccc(N4CCNCC4)cn3)nc2n(C2CCCC2)c1=O [Palbociclib] (partner 0.5 µM)
# How it was run: as §1
# KN-93 + Olaparib = compound: CN(C/C=C/C1=CC=C(C=C1)Cl)CC2=CC=CC=C2N(CCO)S(=O)(=O)C3=CC=C(C=C3)OC [KN-93] + O=C(c1cc(Cc2n[nH]c(=O)c3ccccc23)ccc1F)N1CCN(C(=O)C2CC2)CC1 [Olaparib] (partner 8 µM)
# How it was run: as §1
# KN-93 = compound: CN(C/C=C/C1=CC=C(C=C1)Cl)CC2=CC=CC=C2N(CCO)S(=O)(=O)C3=CC=C(C=C3)OC [KN-93]
# How it was run: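 Hoechst staining, done together with fixation and permeabilisation, marked nuclei for 4× imaging and MetaXpress counting. This followed 5 days without medium change after lung cancer cell lines, kept overnight at 37 °C in 1536-well plates, were pinned with five library-drug doses (not always all listed) spaced by √10 on vehicle-anchored plates. Viability is the ratio of treated-well to vehicle-well nuclei, expressed as a median across plates. Plates passed only at control CV below 25% with at least one doubling.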
cell line,measurement,setting,value
NCI-H2342,relative viability,KN-93 + Tozasertib; first compound 0.08 µM,0.471
same,relative viability,KN-93 + Tozasertib; first compound 0.253 µM,0.492
same,relative viability,KN-93 + Tozasertib; first compound 2.53 µM,0.556
same,relative viability,KN-93 + Tozasertib; first compound 8 µM,0.421
same,relative viability,KN-93 + Trametinib; first compound 0.08 µM,0.744
same,relative viability,KN-93 + Trametinib; first compound 0.253 µM,0.687
same,relative viability,KN-93 + Trametinib; first compound 2.53 µM,0.94
same,relative viability,KN-93 + Trametinib; first compound 8 µM,0.78
same,relative viability,KN-93 + Luminespib; first compound 0.08 µM,0.623
same,relative viability,KN-93 + Luminespib; first compound 0.253 µM,0.686
same,relative viability,KN-93 + Luminespib; first compound 2.53 µM,0.913
same,relative viability,KN-93 + Luminespib; first compound 8 µM,0.634
same,relative viability,KN-93 + Decitabine; first compound 0.08 µM,0.675
same,relative viability,KN-93 + Decitabine; first compound 0.253 µM,0.685
same,relative viability,KN-93 + Decitabine; first compound 2.53 µM,0.757
same,relative viability,KN-93 + Decitabine; first compound 8 µM,0.77
same,relative viability,KN-93 + Phenformin; first compound 0.08 µM,0.536
same,relative viability,KN-93 + Phenformin; first compound 0.253 µM,0.62
same,relative viability,KN-93 + Phenformin; first compound 2.53 µM,0.671
same,relative viability,KN-93 + Phenformin; first compound 8 µM,0.487
same,relative viability,KN-93 + AZD7762; first compound 0.08 µM,0.472
same,relative viability,KN-93 + AZD7762; first compound 0.253 µM,0.467
same,relative viability,KN-93 + AZD7762; first compound 2.53 µM,0.539
same,relative viability,KN-93 + AZD7762; first compound 8 µM,0.404
same,relative viability,KN-93 + OSI-027; first compound 0.08 µM,0.587
same,relative viability,KN-93 + OSI-027; first compound 0.253 µM,0.62
same,relative viability,KN-93 + OSI-027; first compound 2.53 µM,0.625
same,relative viability,KN-93 + OSI-027; first compound 8 µM,0.582
same,relative viability,KN-93 + Vorinostat; first compound 0.08 µM,0.635
same,relative viability,KN-93 + Vorinostat; first compound 0.253 µM,0.8
same,relative viability,KN-93 + Vorinostat; first compound 2.53 µM,0.835
same,relative viability,KN-93 + Vorinostat; first compound 8 µM,0.719
same,relative viability,KN-93 + Pemetrexed; first compound 0.08 µM,0.735
same,relative viability,KN-93 + Pemetrexed; first compound 0.253 µM,0.679
same,relative viability,KN-93 + Pemetrexed; first compound 2.53 µM,0.859
same,relative viability,KN-93 + Pemetrexed; first compound 8 µM,0.717
same,relative viability,KN-93 + Foretinib; first compound 0.08 µM,0.918
same,relative viability,KN-93 + Foretinib; first compound 0.253 µM,0.962
same,relative viability,KN-93 + Foretinib; first compound 2.53 µM,1.06
same,relative viability,KN-93 + Foretinib; first compound 8 µM,0.902
same,relative viability,KN-93 + Dasatinib; first compound 0.08 µM,0.277
same,relative viability,KN-93 + Dasatinib; first compound 0.253 µM,0.327
same,relative viability,KN-93 + Dasatinib; first compound 2.53 µM,0.354
same,relative viability,KN-93 + Dasatinib; first compound 8 µM,0.277
same,relative viability,KN-93 + Palbociclib; first compound 0.08 µM,0.538
same,relative viability,KN-93 + Palbociclib; first compound 0.253 µM,0.54
same,relative viability,KN-93 + Palbociclib; first compound 2.53 µM,0.565
same,relative viability,KN-93 + Palbociclib; first compound 8 µM,0.507
same,relative viability,KN-93 + Olaparib; first compound 0.08 µM,0.4
same,relative viability,KN-93 + Olaparib; first compound 0.253 µM,0.423
same,relative viability,KN-93 + Olaparib; first compound 2.53 µM,0.446
same,relative viability,KN-93 + Olaparib; first compound 8 µM,0.352
same,relative viability,KN-93; 0.08 µM,0.911
same,relative viability,KN-93; 0.253 µM,0.959
same,relative viability,KN-93; 2.53 µM,0.977
same,relative viability,KN-93; 8 µM,0.818
